# Assay results reported in patent publication US20120302569A1, “PHENYL-THIAZOLYL INHIBITORS OF PRO-MATRIX METALLOPROTEINASE ACTIVATION” (priority 2011, published 2012).
# Counter-ions that a name gives are not always drawn.
# Columns and labels:
# [1] = target: T1, proMMP13(1-268) (SEQ ID NO:7) (Homo sapiens, UniProt P45452); assay: ProMMP13/Plasmin P126 Activation Assay; type: biochemical; conditions: proMMP13(1-268) activated by plasmin
# T1 construct: 6×-histidine tag (C); made in house; host or cells: HEK293 (transient transfection, secreted)
# Experimental: ProMMP13/Plasmin P126 Activation Assay
# On the day of assay, proMMP13(1-268) (SEQ ID NO:7) purified from HEK293 cells and plasmin were diluted to 160 nM and 320 nM, respectively, in assay buffer. The reaction volume was 50 μL. […] The plate was sealed and incubated for 40 min at 37° C. […] Plasmin was not reactive towards P-126 substrate under these conditions.
# [2] = target: T2, proMMP9(67-444;ΔFnII) (SEQ ID NO:5) (Homo sapiens, UniProt P14780, DEL216-390); assay: ThermoFluor with proMMP9(67-444;ΔFnII); conditions: read-out: proMMP9(67-444; ΔFnII) (SEQ ID NO: 5) binding
# T2 construct: start methionine (N); made in house; host or cells: E. coli BL21(DE3) RIL
# T2 sequence (P14780 with tags, fused parts or gaps DEL216-390): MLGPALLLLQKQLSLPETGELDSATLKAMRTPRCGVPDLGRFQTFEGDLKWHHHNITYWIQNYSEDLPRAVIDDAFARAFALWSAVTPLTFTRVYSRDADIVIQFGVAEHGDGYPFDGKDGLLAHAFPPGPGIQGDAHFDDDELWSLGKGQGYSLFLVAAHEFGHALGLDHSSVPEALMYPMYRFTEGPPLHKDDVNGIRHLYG
# Summary of the method: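 Thermal shift with 3.5 μM protein and 50 μM 1,8-ANS in 50 mM HEPES pH 7.0, 100 mM NaCl, 0.001% Tween-20, 2.5 mM MgCl2, 300 μM CaCl2, heated 40–90 °C at 1 °C/min. Fluorescence (500±25 nm) fit to yield Tm; binding fitted using DSC/ThermoFluor-derived thermodynamic parameters, compounds dosed as serial dilutions.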
# [3] = target: T3, full-length proMMP9(1-707) (SEQ ID NO:1) (Homo sapiens, UniProt P14780, R574P); assay: proMMP9/MMP3 P126 Activation Assay; type: biochemical; conditions: proMMP9(1-707) from HEK293 cells activated by catalytic MMP3
# T3 construct: made in house; host or cells: HEK293 (proMMP9, secreted); E. coli (MMP3)
# Experimental: proMMP9/MMP3 P126 Activation Assay
# The reaction volume was 50 μL. […] Reactivity of residual MMP3 towards P-126 substrate was minimal under these conditions.
# [4] = target: T4, proMMP9(20-445;ΔFnII) (SEQ ID NO:6) (Homo sapiens, UniProt P14780, DEL216-390); assay: ThermoFluor with proMMP9(20-445;ΔFnII); conditions: read-out: proMMP9(20-445; ΔFnII) (SEQ ID NO: 6) binding
# T4 construct: start methionine (N); made in house; host or cells: E. coli BL21(DE3) RIL
# T4 sequence (P14780 with tags, fused parts or gaps DEL216-390): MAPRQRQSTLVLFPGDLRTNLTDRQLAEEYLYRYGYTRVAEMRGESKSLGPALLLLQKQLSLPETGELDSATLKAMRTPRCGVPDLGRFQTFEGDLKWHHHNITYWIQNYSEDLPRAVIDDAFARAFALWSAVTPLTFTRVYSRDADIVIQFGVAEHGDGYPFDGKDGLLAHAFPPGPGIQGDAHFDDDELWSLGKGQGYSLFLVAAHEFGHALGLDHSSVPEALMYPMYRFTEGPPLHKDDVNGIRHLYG
# Summary of the method: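 Thermal shift of 2.8 μM desalted proMMP9(20-445;ΔFnII) with 50 μM 1,8-ANS in 50 mM HEPES pH 7.0, NaCl, Tween-20, MgCl2, CaCl2; heated 40-90 °C at 1 °C/min, emission 500 nm. Tm from fitted curves; binding fit using DSC/ThermoFluor-derived unfolding parameters for 11-point compound dilutions.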
# T3 sequence (P14780 20-707 R574P): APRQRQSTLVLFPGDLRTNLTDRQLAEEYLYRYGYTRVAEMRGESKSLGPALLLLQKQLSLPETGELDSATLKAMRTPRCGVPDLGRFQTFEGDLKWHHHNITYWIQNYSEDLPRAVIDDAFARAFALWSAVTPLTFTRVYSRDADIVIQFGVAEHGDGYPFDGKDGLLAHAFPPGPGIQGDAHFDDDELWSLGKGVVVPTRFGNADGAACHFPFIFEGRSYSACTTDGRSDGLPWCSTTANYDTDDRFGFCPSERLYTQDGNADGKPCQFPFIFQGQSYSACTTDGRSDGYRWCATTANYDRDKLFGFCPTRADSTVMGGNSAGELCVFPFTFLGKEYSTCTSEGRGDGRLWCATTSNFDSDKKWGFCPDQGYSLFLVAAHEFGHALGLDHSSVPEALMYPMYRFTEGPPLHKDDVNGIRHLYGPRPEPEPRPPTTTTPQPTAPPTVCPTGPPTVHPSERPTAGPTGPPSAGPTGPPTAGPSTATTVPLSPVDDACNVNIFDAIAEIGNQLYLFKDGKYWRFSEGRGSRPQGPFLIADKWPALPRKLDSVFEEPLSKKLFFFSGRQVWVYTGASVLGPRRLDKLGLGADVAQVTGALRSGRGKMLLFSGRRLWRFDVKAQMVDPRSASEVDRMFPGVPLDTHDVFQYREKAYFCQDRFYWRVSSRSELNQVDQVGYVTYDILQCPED
IC50 [1] [µM],Kd [2] [µM],IC50 [3] [µM],Kd [4] [µM],SMILES
0.077,0.021,0.028,0.013,"CC(C)Oc1ccc(C(N)=O)cc1Nc1nc(-c2ccc(N3CCNCC3)cc2)cs1 [Example 7, 4-Isopropoxy-3-((4-(4-(piperazin-1-yl)phenyl)thiazol-2-yl)amino)benzamide.TFA]"
0.12,0.033,0.05,0.017,"CC(C)Oc1ccc(C(N)=O)cc1Nc1nc(-c2ccc(N3CCN(C(C)C)CC3)cc2)cs1 [Example 10, 4-Isopropoxy-3-((4-(4-(4-isopropylpiperazin-1-yl)phenyl)thiazol-2-yl)amino)benzamide.HCl]"
0.34,0.012,0.066,0.018,"CC(C)Oc1ccc(S(N)(=O)=O)cc1Nc1nc(-c2ccc(C3=CCNCC3)cc2)cs1 [Example 12, 4-Isopropoxy-3-((4-(4-(1,2,3,6-tetrahydropyridin-4-yl)phenyl)thiazol-2-yl)amino)benzenesulfonamide.TFA]"
0.19,0.014,0.024,0.017,"CC(C)Oc1ccc(S(N)(=O)=O)cc1Nc1nc(-c2ccc(C3=CCN(C)CC3)cc2)cs1 [Example 13, 4-Isopropoxy-3-((4-(4-(1-methyl-1,2,3,6-tetrahydropyridin-4-yl)phenyl)thiazol-2-yl)amino)benzenesulfonamide.TFA]"
0.091,0.024,0.026,0.011,"CC(C)Oc1ccc(C(N)=O)cc1Nc1nc(-c2ccc(C3=CCN(C)CC3)cc2)cs1 [Example 17, 4-Isopropoxy-3-((4-(4-(1-methyl-1,2,3,6-tetrahydropyridin-4-yl)phenyl)thiazol-2-yl)amino)benzamide.TFA]"
0.032,0.051,0.025,0.017,"CCN1CC=C(c2ccc(-c3csc(Nc4cc(C(N)=O)ccc4OC(C)C)n3)cc2)CC1 [Example 18, 3-((4-(4-(1-Ethyl-1,2,3,6-tetrahydropyridin-4-yl)phenyl)thiazol-2-yl)amino)-4-isopropoxybenzamide.TFA]"
0.087,0.021,0.028,0.013,"CC(C)Oc1ccc(C(N)=O)cc1Nc1nc(-c2ccc(C3=CCN(C(C)C)CC3)cc2)cs1 [Example 19, 4-Isopropoxy-3-((4-(4-(1-isopropyl-1,2,3,6-tetrahydropyridin-4-yl)phenyl)thiazol-2-yl)amino)benzamide.TFA]"
1.2,0.036,0.069,0.34,"CCOc1ccncc1Nc1nc(-c2ccc(C3=CCN(CC)CC3)cc2)cs1 [Example 22, N-(4-Ethoxypyridin-3-yl)-4-(4-(1-ethyl-1,2,3,6-tetrahydropyridin-4-yl)phenyl)thiazol-2-amine.TFA]"
0.85,0.035,0.06,0.51,"CCOc1ccncc1Nc1nc(-c2ccc(C3=CCN(C(C)C)CC3)cc2)cs1 [Example 23, N-(4-Ethoxypyridin-3-yl)-4-(4-(1-isopropyl-1,2,3,6-tetrahydropyridin-4-yl)phenyl)thiazol-2-amine.TFA]"
0.27,0.078,0.027,0.016,"CC(C)Oc1ccc(C(N)=O)cc1Nc1nc(-c2ccc(OCCN3CCN(C)CC3)cc2)cs1 [Example 42, 4-isopropoxy-3-((4-(4-(2-(4-methylpiperazin-1-yl)ethoxy)phenyl)thiazol-2-yl)amino)benzamide.TFA]"
2.9,0.089,0.07,0.55,"CCOc1ccncc1Nc1nc(-c2ccc(OCCN3CCN(C)CC3)cc2)cs1 [Example 43, N-(4-ethoxypyridin-3-yl)-4-(4-(2-(4-methylpiperazin-1-yl)ethoxy)phenyl)thiazol-2-amine.TFA]"
0.52,0.11,0.043,0.024,"CC(C)Oc1ccc(C(N)=O)cc1Nc1nc(-c2ccc(OCCN3CCN(C4CC4)CC3)cc2)cs1 [Example 44, 3-((4-(4-(2-(4-cyclopropylpiperazin-1-yl)ethoxy)phenyl)thiazol-2-yl)amino)-4-isopropoxybenzamide.TFA]"
0.95,0.056,0.041,0.029,"CC(C)Oc1ccc(S(N)(=O)=O)cc1Nc1nc(-c2ccc(OCCN3CCN(C4CC4)CC3)cc2)cs1 [Example 45, 3-((4-(4-(2-(4-cyclopropylpiperazin-1-yl)ethoxy)phenyl)thiazol-2-yl)amino)-4-isopropoxybenzenesulfonamide.TFA]"
0.34,0.099,0.062,0.02,"CC(C)Oc1ccc(C(N)=O)cc1Nc1nc(-c2ccc(OCCCN3CCOCC3)cc2)cs1 [Example 46, 4-isopropoxy-3-((4-(4-(3-morpholinopropoxy)phenyl)thiazol-2-yl)amino)benzamide.TFA]"
0.6,0.077,0.076,0.032,"CC(C)Oc1ccc(S(N)(=O)=O)cc1Nc1nc(-c2ccc(OCCCN3CCOCC3)cc2)cs1 [Example 47, 4-isopropoxy-3-((4-(4-(3-morpholinopropoxy)phenyl)thiazol-2-yl)amino)benzenesulfonamide.TFA]"
0.85,0.099,0.11,0.02,"CC(C)Oc1ccc(C(N)=O)cc1Nc1nc(-c2ccc(CN3CCN(C)CC3)cc2)cs1 [Example 48, 4-isopropoxy-3-((4-(4-((4-methylpiperazin-1-yl)methyl)phenyl)thiazol-2-yl)amino)benzamide.TFA]"
3.4,0.04,0.18,0.026,"CC(C)Oc1ccc(S(N)(=O)=O)cc1Nc1nc(-c2ccc(CN3CCN(C)CC3)cc2)cs1 [Example 49, 4-isopropoxy-3-((4-(4-((4-methylpiperazin-1-yl)methyl)phenyl)thiazol-2-yl)amino)benzenesulfonamide.TFA]"
0.68,0.1,0.049,0.022,"CC(C)Oc1ccc(C(N)=O)cc1Nc1nc(-c2ccc(CN3CCN(C4CC4)CC3)cc2)cs1 [Example 50, 3-((4-(4-((4-cyclopropylpiperazin-1-yl)methyl)phenyl)thiazol-2-yl)amino)-4-isopropoxybenzamide.TFA]"
0.93,0.095,0.059,0.058,"CC(C)Oc1ccc(S(N)(=O)=O)cc1Nc1nc(-c2ccc(CN3CC[C@@H](F)C3)cc2)cs1 [Example 53, (R)-3-((4-(4-((3-fluoropyrrolidin-1-yl)methyl)phenyl)thiazol-2-yl)amino)-4-isopropoxybenzenesulfonamide.TFA]"
0.42,0.08,0.1,0.018,"CC(C)Oc1ccc(C(N)=O)cc1Nc1nc(-c2ccc(CN3CCN(C(C)C)CC3)cc2)cs1 [Example 56, 4-isopropoxy-3-((4-(4-((4-isopropylpiperazin-1-yl)methyl)phenyl)thiazol-2-yl)amino)benzamide.TFA]"
4.3,0.36,0.09,1.5,"COc1ccc(F)cc1Nc1nc(-c2ccc(OCCN3CCN(C)CC3)cc2)cs1 [Example 69, N-(5-fluoro-2-methoxyphenyl)-4-(4-(2-(4-methylpiperazin-1-yl)ethoxy)phenyl)thiazol-2-amine.TFA]"
